The values that follow come from patent publication US11884682B2, “Compounds and their uses as MIF inhibitors” (NANJING IMMUNOPHAGE BIOTECH CO., LTD., priority 2020, dated 2024).

The target of this experiment is MIF (Homo sapiens (Human), UniProt P14174). In words: MIF tautomerase assay using pHPP as substrate. The class given is biochemical. As to conditions: for Tautomerase Inhibition pIC50: cell-free, pHPP substrate 1.5 mM, MIF 3 nM, mean pIC50 of multiple test results. As for the experimental part: Tautomerase Assay Using pHPP as substrate
This assay measured MIF's tautomerase activity in a cell-free system and was based on the determination of initial rates of the MIF-catalyzed conversion of the ketonic into the enolic tautomer of pHPP. This was achieved by spectrophotometric quantification of the complex between borate and the product of the reaction (enolic pHPP). The substrate was prepared by conversion of the enolic pHPP into its ketonic form. To achieve this, 0.5 M pHPP in methanol was diluted 10-fold with 50 mM sodium acetate buffer at pH 6.0, and then the suspension was shaken for 24 h at room temperature in darkness, and finally stored at 4° C. for not more than 1 week, with 5 min sonication being recommended before use.
Assays were performed in small-volume clear-bottom black 96 or 384-well polystyrene plates (Greiner Bio-One). First, 2 μL of the enzyme solution containing 6 nM of MIF in DPBS, 0.025% w/v BSA, and 300 μM CHAPS was dispensed onto sample and negative control wells using Multidrop Combi with metallic tip cassettes (Thermo Fisher Scientific) previously treated with Sigmacote. Then, 2 μL of the same buffer without MIF was dispensed onto positive control wells. The reaction was started by addition of the following to all wells: 2 μL of substrate solution containing 3 mM ketonic pHPP in 200 mM boric acid, 25 mM sodium phosphate, 0.025% w/v BSA, and 300 μM CHAPS at pH 6.0. In order to remove bubbles, the plate was centrifuged in an Allegra 25R centrifuge (Beckman Coulter, Inc., Brea, CA) at 1000 rpm for 2 min at room temperature. Then, the plate was read in an EnVision. Final concentrations of enzyme and substrate were 3 nM and 1.5 mM, respectively. Initial rates were calculated for each well as the slope of the absorbance progress curve.
The data mentioned below represents a mean pIC50 value of multiple test results. It is understood that the data illustrated below may have reasonable variation depending on the specific conditions and procedures used by the person conducting the testing.

SMILES strings stand for the structures.

Sequence of MIF (P14174 2-115): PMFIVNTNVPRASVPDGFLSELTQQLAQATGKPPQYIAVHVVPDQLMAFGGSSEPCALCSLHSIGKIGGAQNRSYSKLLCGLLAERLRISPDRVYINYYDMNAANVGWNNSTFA

`COc1ccc(C(=O)Nc2nnc(-c3ccco3)o2)c(Cl)c1` [Compound 1, 2-chloro-N-(5-(furan-2-yl)-1,3,4-oxadiazol-2-yl)-4-methoxybenzamide]: the “Tautomerase Inhibition pIC50” value is less than 5.
On the same count and under the same terms, the figure for `COc1ccc(C(=O)Nc2nnc(-c3ccccc3)o2)c(OC)c1` [Compound 2, 2,4-dimethoxy-N-(5-phenyl-1,3,4-oxadiazol-2-yl)benzamide] is 5.07; for `O=C(Nc1nnc(-c2ccco2)o1)[C@H]1CCN(Cc2ccccc2)C1` [Compound 3, (S)-1-benzyl-N-(5-(furan-2-yl)-1,3,4-oxadiazol-2-yl)pyrrolidine-3-carboxamide] it is less than 5.
On the same count and under the same terms, for `COc1ccc(C(=O)Nc2nnc(-c3ccc(O)cc3)o2)c(OC)c1` [Compound 4, N-(5-(4-hydroxyphenyl)-1,3,4-oxadiazol-2-yl)-2,4-dimethoxybenzamide] the value was 5.58.
The same measure, in the same setting: the figure for `COc1ccc(C(=O)Nc2nnc(-c3ccsc3)o2)c(OC)c1` [Compound 5, 2,4-dimethoxy-N-(5-(thiophen-3-yl)-1,3,4-oxadiazol-2-yl)benzamide] is 7.73.
As for `COc1ccc(C(=O)Nc2nnc(-c3sccc3C)o2)c(OC)c1` [Compound 7, 2,4-dimethoxy-N-(5-(3-methylthiophen-2-yl)-1,3,4-oxadiazol-2-yl)benzamide], the “Tautomerase Inhibition pIC50” value is less than 5.
In the case of `COc1ccc(C(=O)Nc2nnc(-c3sccc3F)o2)c(OC)c1` [Compound 8, N-(5-(3-fluorothiophen-2-yl)-1,3,4-oxadiazol-2-yl)-2,4-dimethoxybenzamide], the “Tautomerase Inhibition pIC50” value stood at 6.54.
Take `CCOc1ccccc1C(=O)Nc1nnc(-c2cccs2)o1` [Compound 10, 2-ethoxy-N-(5-(thiophen-2-yl)-1,3,4-oxadiazol-2-yl)benzamide]: the “Tautomerase Inhibition pIC50” value is 5.90.
With `COC(=O)c1ccccc1C(=O)Nc1nnc(-c2cccs2)o1` [Compound 12, methyl 2-((5-(thiophen-2-yl)-1,3,4-oxadiazol-2-yl)carbamoyl)benzoate], the “Tautomerase Inhibition pIC50” value is listed as less than 5.
On the same count and under the same terms, for `O=C(Cc1ccccc1)Nc1nnc(-c2cccs2)o1` [Compound 13, 2-phenyl-N-(5-(thiophen-2-yl)-1,3,4-oxadiazol-2-yl)acetamide] the value was less than 5; for `COc1ccc(C(=O)Nc2ccc(-c3ccco3)nn2)c(OC)c1` [Compound 14, N-(6-(furan-2-yl)pyridazin-3-yl)-2,4-dimethoxybenzamide], 5.91.
The same measure, in the same setting: the figure for `COc1cc(O)ccc1C(=O)Nc1nnc(-c2cccs2)o1` [Compound 16, 4-hydroxy-2-methoxy-N-(5-(thiophen-2-yl)-1,3,4-oxadiazol-2-yl)benzamide] is 7.09.
On the same count and under the same terms, for `COc1cc(OCCOCc2ccccc2)ccc1C(=O)Nc1nnc(-c2cccs2)o1` [Compound 18, 4-(2-(benzyloxy)ethoxy)-2-methoxy-N-(5-(thiophen-2-yl)-1,3,4-oxadiazol-2-yl)benzamide] the value was 7.63.
As for `COc1cc(CCCC#N)ccc1C(=O)Nc1nnc(-c2cccs2)o1` [Compound 25, 4-(3-cyanopropyl)-2-methoxy-N-(5-(thiophen-2-yl)-1,3,4-oxadiazol-2-yl)benzamide], the “Tautomerase Inhibition pIC50” value is reported as 7.68.
The same measure, in the same setting: for `COc1cc(CCCc2nn[nH]n2)ccc1C(=O)Nc1nnc(-c2cccs2)o1` [Compound 26, 4-(3-(2H-tetrazol-5-yl)propyl)-2-methoxy-N-(5-(thiophen-2-yl)-1,3,4-oxadiazol-2-yl)benzamide] the value was 7.95.
With `COc1cc([C@H]2CC[C@@H](C(=O)O)CC2)ccc1C(=O)Nc1nnc(-c2cccs2)o1` [Compound 27, Cis-4-(3-methoxy-4-((5-(thiophen-2-yl)-1,3,4-oxadiazol-2-yl)carbamoyl)phenyl)cyclohexane-1-carboxylic acid], the IC50 (read-out: Tautomerase Inhibition pIC50 (converted)) was 18.6 nM.
